Experiments:
Assay type in all cases: in vivo
[1] = system: caterpillars of the diamond back moth (Plutella xylostella, normally sensitive strain); experiment: Plutella xylostella test (normally sensitive strain; cabbage leaf dip, kill rate); conditions: single active compound
From the text: (§1) The expected action for a given combination of two active compounds can be calculated as follows, according to S. R. Colby, Weeds 15 (1967), 20-22:
(§2) • X is the kill rate, expressed as a percentage of the untreated control, when employing active compound A at an application rate of m g/ha or in a concentration of m ppm, • Y is the kill rate, expressed as a percentage of the untreated control, when employing active compound B at an application rate of n g/ha or in a concentration of n ppm and • E is the kill rate, expressed as a percentage of the untreated control, when employing active compounds A and B at application rates of m and n g/ha or in a concentration of m and n ppm, then
(§3) If the actual insecticidal kill rate exceeds the calculated value, the action of the combination is superadditive, i.e. a synergistic effect is present. In this case, the actually observed kill rate must exceed the value calculated using the above formula for the expected kill rate (E).
Plutella xylostella Test (Normally Sensitive Strain)
(§4) To produce a suitable preparation of active compound, 1 part by weight of active compound is mixed with the stated amounts of solvent and emulsifier, and the concentrate is diluted with emulsifier-containing water to the desired concentration.
Cabbage leaves (Brassica oleracea) are treated by being dipped into the preparation of active compound of the desired concentration and are populated with larvae of caterpillars of the diamond back moth (Plutella xylostella, normally sensitive strain) while the leaves are still moist.
After the desired period of time, the kill in % is determined. 100% means that all caterpillars have been killed; 0% means that none of the caterpillars have been killed. The kill rates determined are calculated using Colby's formula (see sheet 1).

[2] = system: green peach aphid (Myzus persicae); experiment: Myzus persicae test (infested cabbage leaf dip, kill rate); conditions: single active compound, 0.8 ppm
From the text: as §1, §2, §3
(§5) To produce a suitable preparation of active compound, 1 part by weight of active compound is mixed with the stated amounts of solvent and emulsifier, and the concentrate is diluted with emulsifier-containing water to the desired concentration. […]
(§6) After the desired period of time, the kill in % is determined. […] The kill rates determined are calculated using Colby's formula (see page 43).

[3] = system: caterpillars of the cotton boll worm (Heliothis armigera); experiment: Heliothis armigera test (cabbage leaf dip, kill rate); conditions: single active compound
From the text: as §1, §2, §3, §4
Cabbage leaves (Brassica oleracea) are treated by being dipped into the preparation of active compound of the desired concentration and are populated with caterpillars of the cotton boll worm (Heliothis armigera) while the leaves are still moist.
(§7) After the desired period of time, the kill in % is determined. 100% means that all caterpillars have been killed; 0% means that none of the caterpillars have been killed. The kill rates determined are calculated using Colby's formula (see page 43).

[4] = system: larvae of the mustard beetle (Phaedon cochleariae); experiment: Phaedon cochleariae larvae test (cabbage leaf dip, kill rate); conditions: single active compound
From the text: as §1, §2, §3
Phaedon cochleariae Larvae Test
as §5, §6

[5] = system: caterpillars of the armyworm (Spodoptera frugiperda); experiment: Spodoptera frugiperda test (cabbage leaf dip, kill rate); conditions: single active compound
From the text: as §1, §2, §3
Spodoptera frugiperda Test
as §4
Cabbage leaves (Brassica oleracea) are treated by being dipped into the preparation of active compound of the desired concentration and are populated with caterpillars of the armyworm (Spodoptera frugiperda) while the leaves are still moist.
as §7

In the case of Cc1cc(Cl)cc(C(=O)NC(C)C)c1NC(=O)c1cc(C(F)(F)F)nn1-c1ncccc1Cl [II-1-9], the “Kill rate in % after 6 d, found” value ([1]; 0.0064 ppm) is reported as 20%, the “Kill rate in % after 6 d, found” value [2] is reported as 0% and the “Kill rate in % after 6 d, found” value ([3]; 0.0064 ppm) is reported as 0%. For the same compound, the “Kill rate in % after 6 d, found” value ([4]; 0.0064 ppm) was 0% and the “Kill rate in % after 6 d, found” value ([5]; 0.0064 ppm) was 0%.
For O=[N+]([O-])/N=C1\NCCN1Cc1ccc(Cl)nc1 [Ia, imidacloprid], the “Kill rate in % after 6 d, found” value ([1]; 4 ppm) was 0%, the “Kill rate in % after 6 d, found” value ([3]; 4 ppm) was 0% and the “Kill rate in % after 6 d, found” value ([4]; 4 ppm) was 20%. For the same compound, the “Kill rate in % after 6 d, found” value ([5]; 4 ppm) was 0%.
In the case of CN/C(=N\[N+](=O)[O-])NCc1cnc(Cl)s1 [Im, clothianidin], the “Kill rate in % after 6 d, found” value ([1]; 4 ppm) is reported as 0%, the “Kill rate in % after 6 d, found” value [2] is reported as 30% and the “Kill rate in % after 6 d, found” value ([3]; 4 ppm) is reported as 40%.

From US8993483B2, “Combination of active substances with insecticidal properties” (Bayer Intellectual Property GmbH, priority 2003, dated 2015)
